Tested on: Plasmodium berghei
Assay: Luciferase/luciferin-expressing antifolate-resistant parasites were used to infect a culture of HepG2 cells that were pre-incubated with compounds. Infected hepatocytes emit light due to the luciferase reaction. Assay results are presented as the percent inhibition of light emission compared to control. […]
Format: functional
Conditions: sporozoite; for IC90: read-out: LUCIFERASE INFECTION ASSAY - IC90

SMILES | IC90 [µM] | other results
c1ccc(-c2cc3nc(NCC4CC4)nc(NCC4CCCCC4)c3s2)cc1 | 3.98 | IC50 (HEPG2TOX_HILL_SLOPE 9.69, HEPG2TOX_R_SQUARED 0.573, PBLUC_HILL_SLOPE 14.3, PBLUC_R_SQUARED 0.374, read-out: LUCIFERASE INFECTION ASSAY - IC50): 3.41 µM
Cn1cc(-c2cn3c(-c4ccc(O)cc4)cnc3cn2)cn1 | > 11.3 | IC50 (HEPG2TOX_HILL_SLOPE 9.44, HEPG2TOX_R_SQUARED 0.67, PBLUC_HILL_SLOPE 2.21, PBLUC_R_SQUARED 0.503, read-out: LUCIFERASE INFECTION ASSAY - IC50): 6.85 µM
Cc1cc(=O)n2nc(-c3ccc(C(C)(C)C)cc3)cc2[nH]1 | 2.42 | IC50 (HEPG2TOX_HILL_SLOPE 9.72, HEPG2TOX_R_SQUARED 0.89, PBLUC_HILL_SLOPE 2.59, PBLUC_R_SQUARED 0.666, read-out: LUCIFERASE INFECTION ASSAY - IC50): 1.04 µM
Cc1cccc(C(=O)Nc2nc3ccc(C)cn3c2C(=O)NCC(C)C)c1 | 3.75 | IC50 (HEPG2TOX_HILL_SLOPE 9.43, HEPG2TOX_R_SQUARED 0.373, PBLUC_HILL_SLOPE 11.3, PBLUC_R_SQUARED 0.193, read-out: LUCIFERASE INFECTION ASSAY - IC50): 3.09 µM
C[S+]([O-])c1ccc(C(F)(F)F)cc1[N+](=O)[O-] (centres undefined) | > 13 | IC50 (HEPG2TOX_HILL_SLOPE 9.53, HEPG2TOX_R_SQUARED 0.815, PBLUC_HILL_SLOPE 1.65, PBLUC_R_SQUARED 0.298, read-out: LUCIFERASE INFECTION ASSAY - IC50): 11.1 µM
Cc1cc(NC(=O)C(C)n2nc(-c3cccs3)c3ccccc3c2=O)no1 (centres undefined) | > 10 | IC50 (HEPG2TOX_HILL_SLOPE 9.69, HEPG2TOX_R_SQUARED 0.542, read-out: LUCIFERASE INFECTION ASSAY - IC50): > 10 µM
Cc1cn2nc(N(C)Cc3ccc(N(C)C)cc3)sc2n1 | > 10 | IC50 (HEPG2TOX_HILL_SLOPE 9.75, HEPG2TOX_R_SQUARED 0.561, PBLUC_HILL_SLOPE 7.25, PBLUC_R_SQUARED 0.0375, read-out: LUCIFERASE INFECTION ASSAY - IC50): 7.97 µM
COc1ccccc1C(=O)c1cnc(Nc2cccc(-c3ccccc3)c2)[nH]1 | > 8.93 | IC50 (HEPG2TOX_HILL_SLOPE 9.5, HEPG2TOX_R_SQUARED 0.78, PBLUC_HILL_SLOPE 12, PBLUC_R_SQUARED 0.218, read-out: LUCIFERASE INFECTION ASSAY - IC50): 8.03 µM
Cc1nnc(Sc2nc(CN3CCCCC3)nc3sc4c(c23)CCC4)s1 | > 10 | IC50 (HEPG2TOX_HILL_SLOPE 9.43, HEPG2TOX_R_SQUARED 0.839, read-out: LUCIFERASE INFECTION ASSAY - IC50): > 10 µM
O=S(=O)(Nc1ccc(Cl)cc1)c1ccc2nc(-c3ccccn3)[nH]c2c1 | 8.29 | IC50 (HEPG2TOX_HILL_SLOPE 9.44, HEPG2TOX_R_SQUARED 0.935, PBLUC_HILL_SLOPE 6.04, PBLUC_R_SQUARED 0.808, read-out: LUCIFERASE INFECTION ASSAY - IC50): 5.77 µM
COc1cc(-c2ccc3ncc(-c4cccc(Cl)c4)n3n2)cc(OC)c1OC | 5.69 | IC50 (HEPG2TOX_HILL_SLOPE 9.46, HEPG2TOX_R_SQUARED 0.786, PBLUC_HILL_SLOPE 7.92, PBLUC_R_SQUARED 0.391, read-out: LUCIFERASE INFECTION ASSAY - IC50): 4.31 µM
O=C(Nc1ccc(C(F)(F)F)cc1)Nc1sccc1Cl | 7.98 | IC50 (HEPG2TOX_HILL_SLOPE 9.59, HEPG2TOX_R_SQUARED 0.7, PBLUC_HILL_SLOPE 5.14, PBLUC_R_SQUARED 0.452, read-out: LUCIFERASE INFECTION ASSAY - IC50): 5.21 µM
Cc1cc(=O)nc(N/N=C/c2c(C)nn(-c3cccc(C(F)(F)F)c3)c2Cl)[nH]1 | 8.03 | IC50 (HEPG2TOX_HILL_SLOPE 9.49, HEPG2TOX_R_SQUARED 0.952, PBLUC_HILL_SLOPE 2.17, PBLUC_R_SQUARED 0.422, read-out: LUCIFERASE INFECTION ASSAY - IC50): 2.91 µM
CCN1C/C(=C/c2cc(Cl)c(OC(C)C)c(OC)c2)C(=O)/C(=C/c2cc(Cl)c(OC(C)C)c(OC)c2)C1 | 3.46 | IC50 (HEPG2TOX_HILL_SLOPE 9.62, 4.07, HEPG2TOX_R_SQUARED 0.967, 0.574, PBLUC_HILL_SLOPE 16.5, 9.41, PBLUC_R_SQUARED 0.287, 0.470, read-out: LUCIFERASE INFECTION ASSAY - IC50): 2.85 µM
Oc1c(Cl)cc(Cl)cc1/C=N/NC(=S)NC1CCCC1 | 3.83 | IC50 (HEPG2TOX_HILL_SLOPE 9.72, HEPG2TOX_R_SQUARED 0.599, PBLUC_HILL_SLOPE 20.7, PBLUC_R_SQUARED 0.654, read-out: LUCIFERASE INFECTION ASSAY - IC50): 3.45 µM
CC(C)NC(=O)/C(C#N)=C/c1cccc(Cl)c1Cl | > 10 | IC50 (HEPG2TOX_HILL_SLOPE 9.7, HEPG2TOX_R_SQUARED 0.0223, read-out: LUCIFERASE INFECTION ASSAY - IC50): > 10 µM

SMILES | IC90 [µM] | other results
CC(C)(C)c1ccc(C(=O)Nc2ccc(N3CCCS3(=O)=O)cc2)cc1[N+](=O)[O-] | 5.03 | IC50 (HEPG2TOX_HILL_SLOPE 9.4, HEPG2TOX_R_SQUARED 0.847, PBLUC_HILL_SLOPE 1.92, PBLUC_R_SQUARED 0.511, read-out: LUCIFERASE INFECTION ASSAY - IC50): 1.6 µM
FC(F)(F)c1cc(/C=N/Nc2c(Cl)cc(C(F)(F)F)cc2Cl)cc(C(F)(F)F)c1 | 6.93 | IC50 (HEPG2TOX_HILL_SLOPE 9.76, HEPG2TOX_R_SQUARED 0.862, PBLUC_HILL_SLOPE 9.4, PBLUC_R_SQUARED 0.388, read-out: LUCIFERASE INFECTION ASSAY - IC50): 5.49 µM
FC(F)(F)Oc1ccc(-c2ccc(OCc3ccccn3)nc2)cc1 | > 9.53 | IC50 (HEPG2TOX_HILL_SLOPE 9.63, HEPG2TOX_R_SQUARED 0.944, read-out: LUCIFERASE INFECTION ASSAY - IC50): > 9.53 µM
Oc1ccc(Br)cc1/C=N/NC(=S)NC1CC2CCC1C2 (centres undefined) | 8.93 | IC50 (HEPG2TOX_HILL_SLOPE 9.58, HEPG2TOX_R_SQUARED 0.779, PBLUC_HILL_SLOPE 13.3, PBLUC_R_SQUARED 0.143, read-out: LUCIFERASE INFECTION ASSAY - IC50): 7.57 µM
Cc1cc(C(C)(C)C)cc(C)c1CCNC(=O)C1CCN(c2cnccn2)CC1 | > 10 | IC50 (HEPG2TOX_HILL_SLOPE 9.49, HEPG2TOX_R_SQUARED 0.929, PBLUC_HILL_SLOPE 9.04, PBLUC_R_SQUARED 0.464, read-out: LUCIFERASE INFECTION ASSAY - IC50): 8.99 µM
Cc1ccccc1CNC(=O)c1ccc(NC(=O)c2ccco2)s1 | > 10 | IC50 (HEPG2TOX_HILL_SLOPE 9.39, HEPG2TOX_R_SQUARED 0.787, PBLUC_HILL_SLOPE 2.67, PBLUC_R_SQUARED 0.485, read-out: LUCIFERASE INFECTION ASSAY - IC50): 5.78 µM
Cn1c(=O)c2cc3cc(Cl)ccc3nc2c2c(=O)n(-c3ccccc3)c(=O)n(-c3ccccc3)c21 | > 6.86 | IC50 (HEPG2TOX_HILL_SLOPE 9.44, HEPG2TOX_R_SQUARED 0.957, PBLUC_HILL_SLOPE 32.7, PBLUC_R_SQUARED 0.0582, read-out: LUCIFERASE INFECTION ASSAY - IC50): 6.86 µM
CC(c1ccc(-n2cncn2)cc1)N(C)c1ncnc2ccsc12 (centres undefined) | > 10 | IC50 (HEPG2TOX_HILL_SLOPE 9.54, HEPG2TOX_R_SQUARED 0.431, PBLUC_HILL_SLOPE 1.32, 1.56, PBLUC_R_SQUARED 0.780, 0.216, read-out: LUCIFERASE INFECTION ASSAY - IC50): 3.71 µM
CCn1nc(C)cc1-c1nnc(Cc2ncc([N+](=O)[O-])s2)n1CCCOC | 5.21 | IC50 (HEPG2TOX_HILL_SLOPE 9.43, HEPG2TOX_R_SQUARED 0.891, PBLUC_HILL_SLOPE 6.15, PBLUC_R_SQUARED 0.786, read-out: LUCIFERASE INFECTION ASSAY - IC50): 3.65 µM
Oc1cccc(-c2ccnc3n[nH]c(-c4ccc5c(c4)OCO5)c23)c1 | 6.14 | IC50 (HEPG2TOX_HILL_SLOPE 9.48, HEPG2TOX_R_SQUARED 0.645, PBLUC_HILL_SLOPE 1.2, PBLUC_R_SQUARED 0.596, read-out: LUCIFERASE INFECTION ASSAY - IC50): 0.984 µM
CCCCc1c(O)cc2n(c1=O)-c1ccc(Cl)cc1C2(C)C | > 10.4 | IC50 (HEPG2TOX_HILL_SLOPE 9.65, HEPG2TOX_R_SQUARED 0.788, PBLUC_HILL_SLOPE 4.5, PBLUC_R_SQUARED 0.532, read-out: LUCIFERASE INFECTION ASSAY - IC50): 7.82 µM
COc1ccc(-c2cnc3ccc(NCc4ccc(C)cc4C)nn23)cn1 | 9.01 | IC50 (HEPG2TOX_HILL_SLOPE 9.76, HEPG2TOX_R_SQUARED 0.857, PBLUC_HILL_SLOPE 10.1, PBLUC_R_SQUARED 0.466, read-out: LUCIFERASE INFECTION ASSAY - IC50): 7.25 µM
N#C/C(=C(/Oc1ccc(Cl)cc1Cl)C(F)(F)F)c1ccccc1 | > 9.21 | IC50 (HEPG2TOX_HILL_SLOPE 9.57, HEPG2TOX_R_SQUARED 0.894, PBLUC_HILL_SLOPE 12.7, PBLUC_R_SQUARED 0.611, read-out: LUCIFERASE INFECTION ASSAY - IC50): 8.77 µM
CC(C)(C)c1csc(NC(=O)Nc2ccc(Cl)cc2)n1 | > 10.7 | IC50 (HEPG2TOX_HILL_SLOPE 9.42, HEPG2TOX_R_SQUARED 0.969, PBLUC_HILL_SLOPE 14.5, PBLUC_R_SQUARED 0.489, read-out: LUCIFERASE INFECTION ASSAY - IC50): 9.21 µM
COC(=O)c1occc1/C=C/C(=O)C12CC3CC(CC(C3)C1)C2 | 7.04 | IC50 (HEPG2TOX_HILL_SLOPE 9.64, HEPG2TOX_R_SQUARED 0.941, PBLUC_HILL_SLOPE 4.67, PBLUC_R_SQUARED 0.564, read-out: LUCIFERASE INFECTION ASSAY - IC50): 4.4 µM
O=C(NCCOc1cccc(Oc2ccccc2)c1)c1cccs1 | > 9.72 | IC50 (HEPG2TOX_HILL_SLOPE 9.69, HEPG2TOX_R_SQUARED 0.418, PBLUC_HILL_SLOPE 2.28, PBLUC_R_SQUARED 0.595, read-out: LUCIFERASE INFECTION ASSAY - IC50): 4.13 µM

Reference: ChEMBL document CHEMBL4483862, “Open-source discovery of chemical leads for next-generation chemoprotective antimalarials” (2018)
